Like-named read-outs stand apart in the source and are kept apart here. Ends that are not written are not given here.

Data set [1] concerns UMUC-3 cells. Kind of data set: Tumor growth test in vivo, UMUC-3 xenograft (no CD9P-1 expression). Set-up: species or system mice. The note with it: cisplatin 2.5 mg/kg i.p.; 13 days. The procedure:
Tumor sizes were measured and tumor volume was calculated. Mice were weighted to detect symptoms of pain.
The effect of P3 was then tested on the tumor growth in an in vivo model of xenograft of UMUC-3.

For data set [2], the system named is NCI-H460 cells. The note with it: 13 days; for average tumoral volume: Example 6, n=5.
Experimental: (§3) Swiss nu/nu female mice aged 5-6 weeks were anesthetized with xylazine (12 mg/kg) and ketamine (80 mg/kg). Tumor cells (NCI-H460 or UMUC-3) were implanted sub-cutanously in the mice flanks. […] Tumor sizes were measured and tumor volume was calculated. Mice were weighted to detect symptoms of pain.
Evaluating the effect of the peptides on tumor growth in vivo was performed. Cancer cells NCI-H460 were injected by sub-cutaneous administration in the Swiss-nu/nu mice flanks (n=20). 10 days following inoculation of tumor cells, mice were randomized in 2 groups of 5 mice. Mice of different groups were treated as follow: mice of group 1 were treated with solvent (200 μL/injection/48 hrs); mice of group 2 were treated with P3 (200 μL of 1 mg/mL of P3 in the solvent/injection/48 hrs). All the treatments were performed by intraperitoneal injection for 13 successive days.
The inoculation of NCI-H460 cells (tumoral volume of 100 to 150 mm^3), mice (n=35) were randomized in 7 groups comprising 5 mice each. […] All the treatments were performed by intraperitoneal injection for 13 successive days.
Data set [3] concerns Calu-6 cells. Nature of the data set: Tumor volume in vivo, Calu-6 xenograft. The settings on record: CDDP alone 5 mg/kg i.p. every other day for 16 days. Also on record: species or system mice. The protocol:
All experiments were reviewed by Genopole's institutional animal care and use committee, and performed in accordance with institutional guidelines for animal care. Female BALB/c nu/nu mice (n=24) were used at 5-6 weeks of age. The animals were housed in laminar air-flow cabinets under pathogen-free conditions with a 14 hrs light/10 hrs dark schedule, and fed autoclaved standard chow and water ad libitum. Calu-6 cells (5×10^6 cells in 200 μl of serum-free RPMI) were subcutaneously injected into the right flank of mice. After engraftment (10 days), tumor volume (TV) was measured (Balsari et al, Eur J Cancer. 2004 May; 40(8):1275-81) and animals were randomized and separated into four groups of six animals each, to be treated by i.p. injection (200 μl per injection) every other day for 16 days (eight injections). Control mice (group 1) received the vehicle (0.9% saline). […] Pegylated peptide 4 (P4-PEG) was dissolved in vehicle at 1 mg/ml and injected at a dose of 10 mg/kg (group 3). In group 4, mice received both CDDP and P4-PEG. Tumor volume and body weight were measured every other day over the treatment period (16 days).

In data set [4] the test system is endostatin. Kind of data set: Endostatin production by HUVECs (ELISA). It is filed as cell-based, human. The settings on record: inhibitor of MMPs GM6001 alone; FIG. 16. The procedure:
HUVECs were transfected with siRNA using transfecting agent GENJET according to the manufacturer's instructions. After 48 hrs of incubation, supernatants were collected, protein expression tested by western blots and endostatin quantified.
Endostatin levels were quantified by ELISAs on lysates of HUVECs incubated at rising concentrations of P3 or PCT for 48 hrs.
In order to evaluate the role of metalloproteinases (MMPs) in endostatin production, a polyvalent inhibitor of MMPs, GM6001 was used. The concentration of endostatin in supernatants is at 6.2 ng/mg of protein of the lysates/48 hrs. […] GM6001 inhibits endostatin production induced by P3. MMPs might then be implicated in endostatin production induced by P3.
HUVECs were incubated for 48 hrs in an EGM2-MV media with an anti-CD151 antibody (11G5a) or an irrelevant antibody (negative control unable to recognize any protein). Then endostatin levels were measured by ELISA in supernatants.
HUVECs cells were transfected with specific siRNA of CD151 and CD9. Protein expression was analyzed in western blots. In parallel, endostatin levels were measured by ELISA in supernatants. […] Levels of endostatin in supernatant of HUVECs cells transfected with siRNA were measured. […] On the contrary, levels of endostatin increased at 9.4 ng/mg of protein lysates/48 hrs in HUVECs depleted in CD151 (FIG. 18B). CD151 is thus involved in the production of endostatin.
For orientation: ELISA stands for enzyme-linked immunosorbent assay.

Data set [5] relates to HUVECs. Kind of data set: Cellular proliferation test (MTT) on HUVECs. The note with it: 48 h. The class given is cell-based, human. The protocol:
Evaluation of cellular proliferation was performed using 4,5-diMethylThiazol-2-yl)-2,5 diphenylTetrazolium bromide (MTT) test. After 18 hrs of culture, the media was changed by EBM2 supplemented with gentamycine and 5% SVF. Different concentrations of peptides were added under a volume of 10 μL/well. Cells were incubated for 48 hrs at 37° C. MTT was added (50 μL/well) to the cells for 3 hrs.
Cells were grown for 48 h in EGM2-MV and proliferation was quantified by MTT assay.

For data set [6], the system named is Matrigel® implants enriched in NCI-H460 cells. Nature of the data set: Angiogenesis test in vivo (Matrigel implants, hemoglobin). Set-up: species or system mice. The settings on record: 10 mg/kg intraperitoneal daily for 12 days; for color of implants: implants collected day 13. The protocol:
Implants of Matrigel® represent an in vivo model of angiogenesis. NCI-H460 cells are used to provide growth factors necessary for blood vessels formation within the Matrigel® matrix. The mixture was then injected sub-cutanously in the Swiis nu/nu mice. Daily treatments with the peptides (1 mg/mL) were performed by injections intraperitoneally. Implants were collected after 12 days.
The dosage of hemoglobin in implants was used as an indicator of the vessels of the implant. The implants were weighted and crushed.
An in vivo model of angiogenesis as described in Passaniti et al. (1992 Experimental gerontology 27, 559-566) was utilized to evaluate the effect of P3 and P4. Briefly, cancer cells were incorporated into Matrigel®, cancer cells provide growth and angiogenic factors necessary for blood vessel formation. The mixture was injected immediately under a sub-cutaneous form of the mice flanks. The day following the inoculation, 20 mice (Swiss nu-nu) were randomized in 4 groups containing 5 mice each and the treatments started as follows: mice of group 1 were treated by 200 μL/injection/day of solvent alone for 12 successive days; mice of group 2 were treated by 200 μL/injection of a P1 solution (1 mg/mL) in a solvent/injection/day for 12 successive days; mice of group 3 were treated by 200 μL of a P3 solution (1 mg/mL) in a solvent/injection/day for 12 successive days; mice of group 4 were treated by 200 μL of a P4 solution (1 mg/mL) in a solvent/injection/day for 12 successive days.

The conditions of data set [7]: mouse, in vivo.
Experimental: as §3
In parallel, to investigate the toxic effect of peptides tested on mice, the mice weights were measured along the treatment.
For data set [8], the target named is T1, CD151 (Homo sapiens, UniProt P48509).
T1 construct: from tissue; host or cells: homogenates of Matrigel implants with NCI-H460 cells, and NCI-H460 xenografts, from Swiss nu/nu mice
T1 sequence (P48509 1-253): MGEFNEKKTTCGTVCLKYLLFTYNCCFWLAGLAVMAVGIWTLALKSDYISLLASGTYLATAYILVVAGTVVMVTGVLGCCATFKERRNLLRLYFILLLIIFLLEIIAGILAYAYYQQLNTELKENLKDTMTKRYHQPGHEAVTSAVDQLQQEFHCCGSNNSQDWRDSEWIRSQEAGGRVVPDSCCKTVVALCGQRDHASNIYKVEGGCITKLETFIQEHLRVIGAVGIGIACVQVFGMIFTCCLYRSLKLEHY
Kind of data set: CD151 in lysates of NCI-H460 xenografts (Western blot). It is filed as in vivo, mice. The settings on record: 10 mg/kg every other day for 13 days. The procedure:
(§1) In lysates from xenografts NCI-H460 cells from mice treated for 13 days every other day by P3 or P4 (10 mg/kg), a decrease of CD151 level is observed respectively of 73% and 50% compared to mice treated with the solvent (FIGS. 12A and B). No change in CD9P-1 was observed (FIG. 12A).

In data set [9] the test system is CD151. Nature of the data set: CD151 in homogenates of Matrigel implants enriched with NCI-H460 (Western blot). The class given is in vivo, mice. The note with it: 10 mg/kg for 12 days. The protocol:
(§2) Analysis of the expression of CD151 and CD9P-1 were performed on western blots on homogenates of implants of Matrigel® enriched with NCI-H460. CD151 profile is characterized by 2 bands on western blots; one at 28 kDa corresponds to CD151 and another one at 26 kDa corresponding to a degraded product of CD151.

Data set [10] deals with CD9P-1. Nature of the data set: CD9P-1 in homogenates of Matrigel implants enriched with NCI-H460 (Western blot). It is filed as in vivo, mice. The settings on record: 10 mg/kg for 12 days. The procedure: as §2
In general terms: Immunoblotting shows a protein as a band on a membrane.

Data set [11] has as its system HUVECs. Kind of data set: Capillaries formation by HUVECs on Matrigel. It is filed as cell-based, human. The settings on record: 6.5 μM, 13 μM and 33 μM, 18 h. The procedure:
Evaluating the formation of capillaries on Matrigel® was performed by angiogenesis test in vitro described in Grant et al (1989 Cell 58, 933-943). Matrigel® was dropped down the wells of the 96 well plates and maintained for 30 min at 37° C. for the Matrigel® solidification. HUVECs cells were then seeded and 50 μL, of peptide added.
Plates were then incubated for 18 hrs at 37° C. cells were then washed with calcein solution (50 μL/well at 8 μM) and incubated for 20 min. HUVECs alive metabolize calcein in a green fluorescent component.
Peptides were added to the culture medium (EGM2-MV) at concentrations 6.5 μM, 13 μM and 33 μM after inoculation of cells. Plates were incubated at 37° C. for 18 h. Fluorescence labeling was achieved by addition of calcein. Pictures were shot with a fluorescence microscope equipped with a camera (zoom ×40).

For data set [12], the target named is T2, CD9P-1 (Homo sapiens, UniProt Q9P2B2).
T2 construct: from tissue; host or cells: homogenates of Matrigel implants with NCI-H460 cells, and NCI-H460 xenografts, from Swiss nu/nu mice
T2 sequence (Q9P2B2 26-879): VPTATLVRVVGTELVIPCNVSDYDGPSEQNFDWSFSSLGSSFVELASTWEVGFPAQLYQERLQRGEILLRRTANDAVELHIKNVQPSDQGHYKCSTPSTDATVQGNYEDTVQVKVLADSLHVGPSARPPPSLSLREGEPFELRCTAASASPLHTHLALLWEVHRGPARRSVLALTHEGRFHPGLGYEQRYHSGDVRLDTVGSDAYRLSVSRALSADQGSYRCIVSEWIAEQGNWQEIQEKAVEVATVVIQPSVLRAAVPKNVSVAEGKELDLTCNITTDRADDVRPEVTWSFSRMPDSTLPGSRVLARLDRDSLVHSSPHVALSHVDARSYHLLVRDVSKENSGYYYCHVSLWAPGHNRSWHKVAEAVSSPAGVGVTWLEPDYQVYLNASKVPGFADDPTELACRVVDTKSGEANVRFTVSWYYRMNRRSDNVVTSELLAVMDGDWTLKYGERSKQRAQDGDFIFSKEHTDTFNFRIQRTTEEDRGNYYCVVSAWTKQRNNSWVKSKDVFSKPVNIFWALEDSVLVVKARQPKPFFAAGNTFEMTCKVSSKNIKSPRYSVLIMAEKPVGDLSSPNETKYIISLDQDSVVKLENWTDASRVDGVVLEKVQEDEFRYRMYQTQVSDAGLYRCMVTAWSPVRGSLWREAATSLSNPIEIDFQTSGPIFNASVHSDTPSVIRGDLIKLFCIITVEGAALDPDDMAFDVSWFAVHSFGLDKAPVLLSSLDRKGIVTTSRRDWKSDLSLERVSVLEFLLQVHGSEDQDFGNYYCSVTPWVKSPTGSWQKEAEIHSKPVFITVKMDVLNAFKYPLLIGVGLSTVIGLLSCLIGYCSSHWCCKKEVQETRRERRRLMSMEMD
Nature of the data set: CD9P-1 in lysates of NCI-H460 xenografts (Western blot). The class given is in vivo, mice. The settings on record: 10 mg/kg every other day for 13 days. The protocol: as §1

Data set [13] deals with endothelial cells. The note with it: results disclosed in WO 2008/138894; cited from earlier work.

For `N.N.[Cl][Pt][Cl]` [cisplatin, Cis-diammine platinum II dichloride], the tumors under treatment entry in data set [1] is listed as “reduced”. The average tumoral volume in data set [2] (cisplatin 2.5 mg/kg i.p.) is 1017±119.8 mm^3; in [2] (cisplatin alone 5 mg/kg i.p.), 626±118.5 mm^3. Moreover, in data set [3], the tumor volume entry was “significant decrease in tumor volume”.

On to `CNC(=O)[C@H](Cc1c[nH]c2ccccc12)NC(=O)[C@@H](CC(=O)NO)CC(C)C` [GM6001], for which, in data set [4], the “concentration of endostatin in supernatants” value is given as 4.4 ng/mg of protein of the lysates/48 hrs and the “decrease of endostatin compared to the control” value is “about 30%”.

Take VSWFAVHSFGLDKAPVLLSS (Peptide 1) [P1]: the “effect on HUVECs proliferation” value in data set [5] was “No effect”. The color of implants entry in data set [6] is recorded as “red color”.

With GNYYCSVTPWVKS [P3], in data set [7], the “Weight difference between day 1 and day 13” value is reported as 10.2 ± 9%; the “Weighted average of mice after 13 days of the treatment” value came to 24.6 ± 0.4. For the same molecule, in data set [7] (10 mg/kg), the “Weight difference between day 1 and day 13” value is recorded as 6 ± 2%; the “Weighted average of mice after 13 days of the treatment” value came to 26.2 ± 2.9. For the same molecule, in data set [5] (66 μM, n=3), the “inhibition of HUVECs proliferation” value is listed as 50%±1.2%. For the same molecule, the “decrease of CD151 level compared to mice treated with the solvent” value in data set [8] was 73%. Also, the “inhibition of the tumor growth in vivo” value in data set [2] (Example 5, P3 200 μL of 1 mg/mL /injection/48 hrs i.p.) was determined as 64.79±4.37%.

For IHSKPVFITVKMDVLNA [P4], the “decrease of the band corresponding to CD151 (28 kDa, normalized to GAPDH, vs solvent)” value in [9] amounted to 51%. The CD9P-1 level entry in data set [10] is “does not change”. Moreover, the “capillary tubes formation (capillaries length and junctions number)” value in data set [11] was “significant decrease of both capillaries length and junctions number”. Besides, in data set [6], the “inhibition of hemoglobin amount in implants compared to group 1 (solvent)” value stood at 29.2±8.4% and the color of implants result is reported as “yellow color with some red points”. Besides, the “change in CD9P-1” value in data set [12] is on record as “No change”.

B1: 168A-T2: fragment of the extracellular domain of protein 168A (CD9P-1) (protein)
chain: MAFDVSWFAVHSFGLDKAPVLLSSLDRKGIVTTSRRDWKSDLSLERVSVLEFLLQVHGSEDQDFGNYYCSVTPWVKSPTGSWQKEAEIHSKPVFITVKMDVLNAFKYP
modifications: peptide 168A-T2
For B1, in data set [13], the “potency relative to the anti-VEGF mAb and/or VEGF receptor (KDR)-based identified peptides” value is listed as “at least 600 fold”.
